Assay results from a melting point compilation (Tetko et al.; mined from patent text by program, amines drawn as free bases though some values may be those of a salt).

melting point [°C] | Structure (SMILES)
135 to 137 | O=S(=O)(c1ccc(F)cc1)n1ccc2ccccc21
175 to 177 | CCc1cc(S(=O)(=O)C(Br)(Br)Br)ccc1C(N)=O
214 to 217 | CN1CC(=O)Nc2cccc(I)c2C1=O
91 to 92 | NC(Cc1cccc(C(F)(F)F)c1)=NO
193 to 195 | Cc1c(C#N)cc(C(C)(C)C)c(O)c1C(=O)Nc1ccc(Sc2ccc(Cl)cc2)cc1C(F)(F)F
198 to 200 | Cc1c(C(=O)N2CCC[C@H](C)C2)[nH]c2ccccc12
98 to 99 | CC(=O)Oc1ccccc1CC1CNC(=O)O1 (stereo unspecified)
58 to 66 | O=C(O)CCCCCCCCC1=CC(O)CC1=O (stereo unspecified)
237 to 242 | Nc1c2c(nc3cnccc13)CCCC2=O
108 to 110 | CCCN1CCC(=O)C2=C1CSc1ccc(OC)cc12
214 to 216 | COc1cccc(OCCCNC(=O)OC(C)(C)C)c1-c1cc(Nc2cnc(C#N)cn2)n[nH]1
107 to 108 | NS(=O)(=O)c1cccc(C=NO)c1
262 to 263 | O=Cc1ccc2c(c1)C1(c3ccccc3-2)c2ccccc2-c2ccc(CO)cc21 (stereo unspecified)
218 to 220 | Cc1ccc(C(=O)NCCCN(C)CCCNC(=O)c2ccc(C)c3nc4ccccc4nc23)c2nc3ccccc3nc12
152 to 153 | CCN(c1ccc(C)c2cc(-c3ncc(C(C)O)s3)[nH]c12)S(=O)(=O)c1cccs1 (stereo unspecified)
181 to 182 | N#Cc1ccc(N(Cc2ccc(OCc3ccccc3)cc2)n2cnnc2)cc1-c1ccco1
83 to 83.5 | CCOC(=O)CC(=O)CC(O)C=Cc1c(C)c(OCc2ccccc2)c(C)c2c1OC(C)(C)CC2 (stereo unspecified)
132 to 136 | Nc1nc2c(s1)CCN(CC=Cc1cccc(Cl)c1)CC2
335 to 336 | CC1=NNC(=O)c2cccc3[nH]cc1c23
238 to 240 | [N-]=[N+]=Nc1cc(=O)n(-c2ccccc2)nc1C1=NCCN1
73 to 75 | ClCC1CCN(C(c2ccccc2)c2ccccc2)CC1
207 to 208 | CSc1ccc(-c2coc3ccc(C(=O)NN)cc23)cc1Cl
75 to 77 | C1CC1Nc1nc(NC2CC2)nc(NC2CC2)n1

melting point [°C] | Structure (SMILES)
171 to 172 | CC(=O)Oc1c(C(C)(C)C)cc(C#N)c(C)c1C(=O)Nc1ccc(C#N)cc1C(F)(F)F
219 to 220 | Nc1cccc2c1ccn2-c1ccnc(N[C@H]2CC[C@H](O)CC2)n1
176 to 177 | O=C(O)Cc1nn(CC(=S)Nc2cc(C(F)(F)F)ccc2Br)c(=O)c2ccccc12
134 to 136 | Cc1ccc(-c2cccc(C(N)=NO)c2)cc1
194 | COCCNC1CCN(c2ccc(NC(=O)c3cnn(-c4ccc(Cl)cc4)c3C)cc2C#N)CC1
145 to 147 | CCOC(=O)c1c(-c2ccc(F)cc2)c2ccsc2c(=O)n1C
93 to 99 | COc1ccc(C2CCN(C)CC2)cc1Nc1ncc2ccc(-c3ccccc3N(C)S(C)(=O)=O)n2n1
41.9 to 42.7 | CCCCCCCCCCCCCCCCC[C@@H]1OC[C@@H](COC(=O)CCCCCOS(=O)(=O)c2ccc(C)cc2)O1 (relative stereo)
244 to 245 | O=C(O)c1cccc(C(=O)Nc2ccc(-n3nc(C(F)(F)F)cc3C(F)(F)F)cc2)c1
201 to 202 | COCCOc1c(C)cc(-c2nc3cc(OC)cc(OC)c3c(=O)[nH]2)cc1C
250 to 251 | CC1(C)OC(=S)Nc2ccc(-c3cc(C#N)ccc3F)cc21
123 | Cc1ccc2c(c1)c(=O)c1c(cnn1C)n2-c1cccc(I)c1
101 to 103 | CC(=O)SCCNC(=O)[C@H](CSC(=O)C(C)(C)C)NC(=O)C(C)C
158 to 159 | COc1ccc(-c2ccccc2NC(N)=S)cc1
235 to 237 | Cc1noc2cc(F)c(-n3c(=O)cc(C(F)(F)F)[nH]c3=O)cc12
152 to 154 | CS(=O)(=O)Nc1ccc2c(c1)C(=O)C1(CC1)O2
167 to 171 | COC(=O)c1cccc(CN2CCOc3ccc(N)cc32)c1
218 to 219 | O=C1NC(=O)c2c1c(-c1ccccc1Cl)cc1c2c(Cl)c(CO)n1CCCO
132 to 133 | O=Cc1c(O)c(O)cc2ccccc12
161 to 162 | COc1cccc(CC(=O)O)c1OCCCc1cn(-c2ccc([N+](=O)[O-])cn2)nc1C(C)C
150 to 152 | CN(C)CCOc1cc2c(Nc3ccc(Cl)cc3F)c(C#N)cnc2cn1
150 to 152 | COC(=O)C(NC(=O)c1ccccc1)c1ccc(-c2ccc(S)cc2)cc1 (stereo unspecified)
124 to 126 | O=Cc1cccc(-c2nc3sccn3c2-c2ccnc(N[C@@H]3CCCN(S(=O)(=O)c4ccc(Cl)cc4)C3)n2)c1

melting point [°C] | Structure (SMILES)
144 to 154 | CC(C)C(=O)C(=Cc1ccccc1)C(=O)Nc1ccccc1
220 to 222 | Cc1nc2cccc(OC3CCCCC3)c2c(N)c1C(=O)O
> 250 | Cc1ccc(S(=O)(=O)Nc2nc(-c3cccc(C#N)c3)cs2)cc1
173 to 175 | CCN1C=C(C(=O)O)C(=O)CC1c1ccc2c(c1)OCO2 (stereo unspecified)
110 | C=C(Cn1cc[nH]c1=O)c1ccc(OC)c(OC2CCCC2)c1
196 to 198 | N#CN=c1ccccn1C1=CC(CF)(CF)Oc2ccc(C(F)(F)C(F)(F)F)cc21
157 to 158 | Cc1cc2ccccc2n1Nc1ccncc1F
95 to 96 | N#Cc1ccc(CC2CCN(Cc3ccccc3)CC2)cc1
109 to 110 | O=C(c1ccc([N+](=O)[O-])cc1)N1CCN(CCc2ccc(Cl)cc2)CC1
174 to 175 | Cc1ccc2c(c1)CC(N1CCN(CCN3CCOC3=O)CC1)c1cc(Cl)ccc1S2 (stereo unspecified)
268 to 270 | O=C(NCc1ccc(Cl)cc1)c1cnc2c(F)cc(I)cc2c1O
173 to 175 | CC(C)CC(=O)Nc1cccc(-c2ccnc3c(-c4cccc(N)c4)cnn23)c1
191 to 192 | O=c1nc(-c2ccccc2)c2ccsc2n1CC1CC1
96 to 99 | CCN(CC)CCNC(=O)c1cc(Cl)c(N)cc1OC1CCCCC1=O (stereo unspecified)
143 to 144 | Cc1c(C)c2c(c(C)c1NC(=O)CC(C)(C)C)[C@@H](c1ccc(C(C)C)cc1)[C@H](C)O2 (relative stereo)
178 | Cc1nn(C)c(C(=O)C(C#N)c2ccc(C(C)(C)C)cc2)c1C (stereo unspecified)
133 | COc1cc(OC)c([N+](=O)[O-])c(OC)c1NC(=O)OCCCl
127 to 128 | CCOCc1nc2c(N)nc(C)cc2n1CCOCc1ccccc1
> 240 | Oc1ncnc2cnc(NC3CC3)nc12
127 to 129 | Nc1ncnc2c1c(-c1cc(O)cc(F)c1)nn2Cc1oc2ccc(F)cc2c(=O)c1-c1cccc(F)c1
47 to 48 | COc1cc(C(=O)NCc2ccc(N)cc2)cc(OC)c1OC(C)=O
122 to 124 | COC(=O)c1cc(NC(=O)C(N)c2ccc3c(c2)C(C)(C)CCC3(C)C)cn1C (stereo unspecified)

Structure (SMILES) | melting point [°C]
N#Cc1nn(-c2c(Cl)cc(C(F)(F)F)cc2Cl)c(N)c1C#N | 221 to 222
O=C(CCC1CCCCC1)NC1N=C(c2ccccc2)c2ccccc2N2CCN=C12 (stereo unspecified) | 202 to 208
CC(=O)Nc1ccc2c(c1)CC(N(C)C)C2 (stereo unspecified) | 94 to 96
